Assay [1] deals with microbial cells of Empedobacter brevis strain FERM BP-8113. Put plainly: Production of peptide using microbial cells. The class given is cell-based. Conditions: 1 mL cell suspension (100 g/L) + 1 mL buffer with 200 mM carboxy component (hydrochloride) and 400 mM amino acid; borate buffer pH 9.0, 10 mM EDTA; 18° C., 2 hours. Here is the method: A 50 mL medium (pH 6.2) containing 5 grams (g) of glucose, 5 g of ammonium sulfate, 1 g of monopotassium phosphate, 3 g of dipotassium phosphate, 0.5 g of magnesium sulfate, 10 g of yeast extract and 10 g of peptone in 1 liter (L) was transferred to a 500 mL Sakaguchi flask and sterilized at 115° C. for 15 minutes. This medium was then inoculated with one loopful cells of Empedobacter brevis strain FERM BP-8113 (Depositary institution: the independent administrative corporation, National Institute of Advanced Industrial Science and Technology, International Patent Organism Depositary, Address of depositary institution: Chuo Dai-6, 1-1 Higashi 1-Chome, Tsukuba-shi, Ibaraki-ken, Japan, International deposit transfer date: Jul. 8, 2002) that had been cultured at 30° C. for 16 hours in the same medium, followed by shake culturing at 30° C. for 16 hours and 120 strokes/min.

The subject of assay [2] is peptide-forming enzyme (Mono S fraction enzyme). The experiment in a line: Enzyme substrate specificity (1)-(10), (13), (14): peptide production. Type of assay: biochemical, Empedobacter brevis. Also on record: key to Formed peptide: +: those peptides for which production was confirmed but which were unable to be quantified due to the absence of a standard; a trace amount. Conditions: pH 9.0, 25° C., 3 hours; for Produced peptide: L-amino acid ester 100 mM, peptide (amine component) 150 mM. Summed up: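 Mono S enzyme fraction in 100 mM borate buffer (pH 9.0) with 10 mM EDTA and 100 mM carboxy component (amino acid methyl esters or amides); amine components (L-glutamine, amino acids, amino acid amides or methylamine) at 150 mM, or 200 mM L-glutamine with varied esters. Reactions ran at 25° C for 2–3 hours; 0.1% Tween-80 added for Trp/Tyr-OMe.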

The subject of assay [3] is enzyme derived from Sphingobacterium sp. strain FERM BP-8124 (SP-Sepharose HP fraction enzyme). The experiment in a line: Enzyme substrate specificity (11), (12): peptide production. Type of assay: biochemical. Conditions: carboxy component 100 mM, 0.33 units enzyme, pH 9.0, 25° C., 1.5 hours; for Produced peptide (Table 15-3) / Produced peptide (Table 15-1) / Produced peptide (Table 15-4) / Produced peptide (Table 16, oligopeptide): amine component 150 mM; for Produced peptide (Table 15-4): amides and methylamine; for Produced peptide (Table 15-2): L-Gln 150 mM. Also on record: key to Produced peptide (Table 15-1) / Produced peptide (Table 15-3) / Produced peptide (Table 15-4): +: those peptides for which production was confirmed but which were unable to be quantified due to the absence of a standard; a trace amount. An excerpt:
Substrate specificity was examined for enzyme derived from Sphingobacterium sp. strain FERM BP-8124 (Depositary institution: the independent administrative corporation, National Institute of Advanced Industrial Science and Technology, International Patent Organism Depositary, Address of depositary institution: Chuo Dai-6, 1-1 Higashi 1-Chome, Tsukuba-shi, Ibaraki-ken, Japan, International deposit date: […] The amounts of various peptides formed in this reaction are shown in Table 15. The “+” mark indicates those peptides for which production was confirmed but which were unable to be quantified due to the absence of a standard, while “tr” indicates a trace amount. Furthermore, Tween-80 was added to the reaction system to a final concentration of 0.1% in the case of using L-Tyr-OMe. In addition, hydrochloride salts were used for all carboxy components. Substrate specificity with respect to oligopeptide production was examined for enzyme derived from Sphingobacterium sp. strain FERM BP-8124 (Depositary institution: the independent administrative corporation, National Institute of Advanced Industrial Science and Technology, International Patent Organism Depositary, Address of depositary institution: Chuo Dai-6, 1-1 Higashi 1-Chome, Tsukuba-shi, Ibaraki-ken, Japan, International deposit date: […] The amounts of each oligopeptide formed in this reaction are shown in Table 16. Furthermore, hydrochloride salts were used for all the carboxy components.

[4] abbreviates: L-amino acid methyl ester hydrochloride 100 mM, L-amino acid 150 mM.
Setting [5] is: 100 mM L-alanine methyl ester hydrochloride, L-amino acid 150 mM.
The mark [6] stands for this setting: L-amino acid amide hydrochloride as carboxy component 100 mM, L-amino acid 150 mM.
Setting [7] is: L-amino acid methyl ester hydrochloride 100 mM, 150 mM L-glutamine.

Where a SMILES comes first, the peptide text is derived from it.

`NCC(=O)N[C@@H](Cc1cnc[nH]1)C(=O)O` [Gly-L-His] (H-Gly-His-OH): the Formed peptide is on record as 22.1 mM in assay [1] and 31.6 mM in assay [2] (setting [4]). The “Produced peptide (Table 15-3)” value in assay [3] amounted to 36.2 mM.
Consider `C[C@H](N)C(=O)N[C@@H](CCCN=C(N)N)C(=O)O` [L-Ala-L-Arg] (H-Ala-Arg-OH), for which the Formed peptide in assay [1] is given as 72.1 mM; in assay [2] (setting [5]), 88.0 mM. For the same compound, the “Produced peptide (Table 15-1)” value in assay [3] amounted to 72.2 mM.
Consider `C[C@H](N)C(=O)N[C@@H](Cc1cnc[nH]1)C(=O)O` [L-Ala-L-His] (H-Ala-His-OH), for which the Formed peptide in assay [1] is on record as 52.1 mM; in assay [2] (setting [5]), 66.9 mM; in assay [2] (setting [6]), 3.9 mM. In addition, the “Produced peptide (Table 15-4)” value in assay [3] was “tr”. Also, the “Produced peptide (Table 15-1)” value in assay [3] is 73.6 mM.
`CC(C)C[C@H](NC(=O)[C@H](C)N)C(=O)O` [L-Ala-L-Leu] (H-Ala-Leu-OH): the values for the Formed peptide in assay [1] and in assay [2] (setting [5]) were 38.2 mM and 45.3 mM, respectively. In assay [3], the “Produced peptide (Table 15-1)” value is listed as 33.0 mM.
In the case of `CSCC[C@H](NC(=O)[C@H](C)N)C(=O)O` [L-Ala-L-Met] (H-Ala-Met-OH), the Formed peptide in assay [1] came to 68.3 mM; in assay [2] (setting [5]), 83.3 mM; in assay [2] (setting [6]), 3.4 mM. In assay [3], the “Produced peptide (Table 15-4)” value is listed as “tr”. Further, the “Produced peptide (Table 15-1)” value in assay [3] came to 86.9 mM.
With `C[C@H](N)C(=O)N[C@@H](Cc1ccccc1)C(=O)O` [L-Ala-L-Phe], the Formed peptide is listed as 62.4 mM in assay [1] and 74.4 mM in assay [2] (setting [5]). For the same compound, the “Produced peptide (Table 15-1)” value in assay [3] worked out at 69.5 mM.
Taken in the same sequence, the figures for `C[C@H](N)C(=O)N[C@@H](CO)C(=O)O` [L-Ala-L-Ser] (H-Ala-Ser-OH) were 51.3 mM, 62.5 mM and 43.8 mM.
Regarding `CSCC[C@H](N)C(=O)N[C@@H](CCC(N)=O)C(=O)O` [L-Met-L-Gln] (H-Met-Gln-OH), the Formed peptide in assay [2] (setting [7]) is given as 12.0 mM. In addition, in assay [3], the “Produced peptide (Table 15-2)” value came to 32.6 mM.
In the case of `CSCC[C@H](N)C(=O)N[C@@H](Cc1ccccc1)C(=O)O` [L-Met-L-Phe] (H-Met-Phe-OH), the Formed peptide in assay [1] was 28.5 mM. In addition, the “Produced peptide (Table 15-3)” value in assay [3] came out at 8.9 mM.
Take `NC(=O)CC[C@H](NC(=O)[C@@H](N)Cc1ccccc1)C(=O)O` [L-Phe-L-Gln]: the figures for the Formed peptide in assay [2] (setting [6]) and in assay [2] (setting [7]) were 0.2 mM and 0.9 mM, respectively. Besides, the “Produced peptide (Table 15-2)” value in assay [3] amounted to 0.8 mM.
In turn, `NC(=O)CC[C@H](NC(=O)[C@@H]1CCCN1)C(=O)O` [L-Pro-L-Gln] (H-Pro-Gln-OH) had a Formed peptide in assay [2] (setting [7]) of 2.2 mM. Also, the “Produced peptide (Table 15-2)” value in assay [3] worked out at 1.8 mM.
On to `NC(=O)CC[C@H](NC(=O)[C@@H](N)CO)C(=O)O` [L-Ser-L-Gln] (H-Ser-Gln-OH), for which, in assay [2] (setting [7]), the Formed peptide came to 24.0 mM. Also, the “Produced peptide (Table 15-2)” value in assay [3] is 12.9 mM.
Consider `CSCC[C@H](NC(=O)[C@@H](N)CO)C(=O)O` [L-Ser-L-Met] (H-Ser-Met-OH), for which, in assay [2] (setting [4]), the Formed peptide is listed as 12.5 mM. In addition, the “Produced peptide (Table 15-3)” value in assay [3] was determined as 7.6 mM.
Taken in the same sequence, the figures for `N[C@@H](CO)C(=O)N[C@@H](Cc1ccccc1)C(=O)O` [L-Ser-L-Phe] were 20.3 mM and 4.3 mM.
`C[C@@H](O)[C@H](N)C(=O)NCC(=O)O` [L-Thr-Gly] (H-Thr-Gly-OH) registered a Formed peptide in assay [2] (setting [4]) of 9.4 mM. Further, in assay [3], the “Produced peptide (Table 15-3)” value is given as 0.4 mM.
Taken in the same sequence, the figures for `C[C@H](NC(=O)[C@@H](N)[C@@H](C)O)C(=O)O` [L-Thr-L-Ala] (H-Thr-Ala-OH) were 9.4 mM and 5.8 mM.
`C[C@@H](O)[C@H](N)C(=O)N[C@@H](CCC(N)=O)C(=O)O` [L-Thr-L-Gln] (H-Thr-Gln-OH): the Formed peptide is 0.3 mM in assay [2] (setting [6]) and 81.9 mM in assay [2] (setting [7]). Moreover, the “Produced peptide (Table 15-2)” value in assay [3] was determined as 36.1 mM.
Compound `CSCC[C@H](NC(=O)[C@@H](N)[C@@H](C)O)C(=O)O` [L-Thr-L-Met] (H-Thr-Met-OH) showed a Formed peptide in assay [2] (setting [4]) of 38.6 mM. Moreover, the “Produced peptide (Table 15-3)” value in assay [3] amounted to 28.9 mM.
`CC(C)[C@H](NC(=O)[C@@H](N)[C@@H](C)O)C(=O)O` [L-Thr-L-Val] (H-Thr-Val-OH) showed a Formed peptide in assay [2] (setting [4]) of 0.7 mM. The “Produced peptide (Table 15-3)” value in assay [3] is listed as 1.3 mM.
In the case of `CNC(=O)[C@@H](N)[C@@H](C)O` [L-Thr-methylamine], the Formed peptide in assay [2] (amino acid methyl ester hydrochloride 100 mM, methylamine 150 mM) stood at 0.2 mM. In addition, the “Produced peptide (Table 15-4)” value in assay [3] worked out at 0.3 mM.
As to `NC(=O)CC[C@H](NC(=O)[C@@H](N)Cc1ccc(O)cc1)C(=O)O` [L-Tyr-L-Gln] (H-Tyr-Gln-OH), the Formed peptide in assay [2] (setting [7]) was 3.4 mM. Moreover, in assay [3], the “Produced peptide (Table 15-2)” value stood at 0.6 mM.
`CC(C)[C@H](N)C(=O)N[C@@H](CCC(N)=O)C(=O)O` [L-Val-L-Gln] (H-Val-Gln-OH) yielded a Formed peptide in assay [2] (setting [7]) of 15.4 mM. Moreover, the “Produced peptide (Table 15-2)” value in assay [3] worked out at 8.2 mM.
The compound `CC(C)[C@H](N)C(=O)N[C@@H](Cc1ccccc1)C(=O)O` [L-Val-L-Phe] (H-Val-Phe-OH) gave a Formed peptide in assay [2] (setting [4]) of 6.1 mM. Further, the “Produced peptide (Table 15-3)” value in assay [3] came out at 1.0 mM.
As to `CC(C)[C@H](N)C(=O)N[C@@H](CO)C(=O)O` [L-Val-L-Ser] (H-Val-Ser-OH), the Formed peptide in assay [2] (setting [4]) is listed as 30.8 mM. In assay [3], the “Produced peptide (Table 15-3)” value was 31.9 mM.
As for `NC(=O)CC[C@H](NC(=O)[C@@H](N)CC(=O)O)C(=O)O` [α-L-Asp-L-Gln] (H-Asp-Gln-OH), the Formed peptide result in assay [2] (setting [7]) was “tr”. Besides, the “Produced peptide (Table 15-2)” value in assay [3] came out at 0.05 mM.
Turning to Gly-L-Ala-L-Tyr, the Produced peptide in assay [2] is on record as 1.7 mM. Moreover, in assay [3], the “Produced peptide (Table 16, oligopeptide)” value is 0.6 mM.
L-Ala-Gly-Gly: the Produced peptide in assay [2] was 41.7 mM. Further, in assay [3], the “Produced peptide (Table 16, oligopeptide)” value was 33.7 mM.
As for L-Ala-Gly-L-Ala, the Produced peptide in assay [2] was determined as 25.9 mM. The “Produced peptide (Table 16, oligopeptide)” value in assay [3] is reported as 35.1 mM.
L-Ala-L-Ala-L-Ala showed a Produced peptide in assay [2] of 57.5 mM. The “Produced peptide (Table 16, oligopeptide)” value in assay [3] came to 41.1 mM.
Consider L-Ala-L-Ala-L-Ala-L-Ala, for which, in assay [2], the Produced peptide came out at 44.5 mM. For the same compound, the “Produced peptide (Table 16, oligopeptide)” value in assay [3] worked out at 30.1 mM.
Take L-Ala-L-Ala-L-Ala-L-Ala-L-Ala: the Produced peptide in assay [2] is 34.8 mM. Besides, the “Produced peptide (Table 16, oligopeptide)” value in assay [3] stood at 22.8 mM.
Taken in the same sequence, the figures for L-Ala-L-His-L-Ala were 55.9 mM and 58.0 mM.
In the case of L-Ala-L-Leu-L-Ala, the Produced peptide in assay [2] is recorded as 48.3 mM. Moreover, the “Produced peptide (Table 16, oligopeptide)” value in assay [3] is listed as 40.7 mM.
Taken in the same sequence, the figures for L-Ala-L-Phe-Gly were 43.7 mM and 34.0 mM.
Consider L-Ala-L-Phe-L-Ala, for which the Produced peptide in assay [2] was 49.7 mM. Also, the “Produced peptide (Table 16, oligopeptide)” value in assay [3] is on record as 24.8 mM.
For the compound L-Thr-Gly-Gly, in assay [2], the Produced peptide came out at 83.0 mM. Besides, the “Produced peptide (Table 16, oligopeptide)” value in assay [3] came out at 8.4 mM.

For the origin of these results see US20040204577A1, “Novel peptide-forming enzyme gene” (Ajinomoto Co., Inc., priority 2003, published 2004).
